Counter-ions that a name gives are not always drawn. Like-named read-outs stand apart in the source and are kept apart here.
Columns and labels:
Assay type in all cases: cell-based, human
[1] = system: ATXN2-luc; test: MSSR hit retest / multiconcentration testing: ATXN2-luc luciferase assay in H2 cells (1 and 10 μM); settings: for H2&S1 ave luc 1uM: 1 uM compound; for H2&S1 ave luc 10uM: 10 uM compound
[2] = system: ATXN2-luc; test: MSSR hit retest: ATXN2-luc luciferase assay, average of H2 and S1 cells (1 and 10 uM); design: H2&S1 ave luc 1uM / H2&S1 ave luc 10uM: scale not given here; settings: for activity at 1 µM / activity / activity at 10 µM: Homo sapiens; for activity at 1 µM: read-out: H2&S1 ave luc 1uM; for activity / activity at 10 µM: read-out: H2&S1 ave luc 10uM; for activity at 10 µM / H2&S1 ave luc 10uM: head line r3 10uM; for H2&S1 ave luc 10uM: head line r4 20 uM compound
Excerpt: (§1) Supplement mmc2.xlsx, sheet "43 annotated compounds"

[3] = system: H2 and S1 cells; test: Paired MTT viability assay, average of H2 and S1 cells (1 and 10 uM); design: H2&S1 ave MTT 1uM / H2&S1 ave MTT 10uM: unit not given here; settings: for viability at 1 µM / viability at 10 µM: Homo sapiens
Excerpt: as §1

[4] = system: ATXN2-luc; test: MSSR pilot screen: ATXN2-luc luciferase assay (Bright-Glo) in H2 cells, single 10 μM dose; settings: for SD from mean (ATXN2-luc, Z-score): H2 cells, single dose (title: 10 μM compound), overnight; for ¦Score/1SD¦: absolute score divided by 1SD (0.891 or 0.9)
[5] = system: ATXN2-luc; test: Secondary assays: ATXN2-luc in S2 and H2 cells, 12 doses, Bright-Glo; settings: summary data
Method: The values for H2 and S2 were used as replicates to calculate IC50s and to assess cell viability.
(§2) Compounds were plated at 2× concentrations in phenol red–free DMEM in 25 μl in 384-well plates with each compound dose plated in triplicate. An equal volume of S2, H2, or SC cells (24,000 cells/well) suspended in phenol red–free DMEM with 10% fetal bovine serum and 1× penicillin/streptomycin were added. Cells were grown 24 h and then assayed first by using the CellTiter-Fluor reagent (20 μl) followed by the addition of Bright-Glo (65 μl) luciferase assay, using a multimode plate reader (Beckman; DT880). Values were reported as the mean ± SD with n = 3. IC50s were determined by the Hill coefficient method using an online tool (https://www.aatbio.com/tools/ic50-calculator).

[6] = system: CMV-luc; test: Secondary assays: CMV-luc in SC cells, Bright-Glo; settings: minimum CMV-luc signal in SC cells over 12 doses; summary data
Method: as §2

[7] = luciferase, average of H2 and S1 cells expressing ATXN2-luc, rescreen
[8] = read-out: H2&S1 ave MTT 1uM, 1 uM compound
[9] = read-out: H2&S1 ave MTT 10uM, 10 uM compound
[10] = luciferase assay, average of H2 and S1 cells (both ATXN2-luc), rescreen from plated libraries
[11] = pilot screen, H2 cells expressing ATXN2-luc, single dose printed as 10 μM compound
[12] = 1 uM compound, average of H2 and S1 cells
[13] = 1 uM compound, read-out: H2&S1 ave MTT 1uM
[14] = 10 uM compound, read-out: H2&S1 ave MTT 10uM
[15] = pilot screen at 10 µM compound, H2 cells expressing ATXN2-luc

| SMILES | activity at 1 µM [2] [%] | activity [2] [%] | viability at 1 µM [3, 8] [%] | viability at 10 µM [3, 9] [%] | H2&S1 ave luc 1uM [1, 10] | SD from mean (ATXN2-luc, Z-score) [4] [SD] | SD from mean (pilot screen) ([4]; pilot screen) [SD] | SD from mean (pilot screen) [4, 11] | ¦Score/1SD¦ ([4]; pilot screen) | also measured |
| --- | --- | --- | --- | --- | --- | --- | --- | --- | --- | --- |
| CC(=O)O[C@H]1C[C@H](O[C@H]2[C@@H](O)C[C@H](O[C@H]3[C@@H](O)C[C@H](O[C@H]4CC[C@@]5(C)[C@H](CC[C@@H]6[C@@H]5C[C@@H](O)[C@]5(C)[C@@H](C7=CC(=O)OC7)CC[C@]65O)C4)O[C@@H]3C)O[C@@H]2C)O[C@H](C)[C@H]1O[C@@H]1O[C@H](CO)[C@@H](O)[C@H](O)[C@H]1O [LANATOSIDE C] | 39 | 15 | 35 | 35.6 |  |  |  |  |  | H2&S1 ave luc 1uM [1, 7]: 39; H2&S1 ave luc 10uM [1, 7]: 15 |
| CC1=CC(=O)c2ccccc2C1=O [Menadione] |  |  |  |  | 115 | -3.434 | -3.434 | -3.434 | 3.85 | activity at 1 µM [2, 12]: 115%; activity at 10 µM ([2]; average of H2 and S1 cells): 35%; viability at 1 µM [3, 13]: 153%; viability at 10 µM [3, 14]: 103% |
| Nc1ccc(-c2ccc3ncc4ccc(=O)n(-c5cccc(C(F)(F)F)c5)c4c3c2)cn1 [NCGC00263216-02, torin 2] |  |  |  |  |  |  |  |  |  | IC50 ([5]; ATXN2-luc luciferase assays in H2 and S2 cells, 12 doses plus a zero dose, read-out: Mean IC50): 257 nM; min ATXN2-luc (%) ([5]; minimum ATXN2-luc signal over 12 doses, H2 and S2 cells): 25.4183%; min SC luc (%) [6]: 128.375% |
| COc1ccc(CCCOC(Cn2ccnc2)c2ccc(OC)cc2)cc1 (centres unmarked) [SKF-96365] |  |  |  |  | 104 | -2.721 | -2.721 | -2.721 | 3.05 | H2&S1 ave luc 10uM [1, 10]: 57; H2&S1 ave luc 1uM [2, 12]: 104; H2&S1 ave luc 10uM ([2]; average of H2 and S1 cells): 57; H2&S1 ave MTT 1uM ([3]; 1 uM compound): 115.609; H2&S1 ave MTT 10uM ([3]; 10 uM compound): 90.0391 |
| C[C@]12CC[C@H]3[C@@H](CC[C@]4(O)C[C@@H](O)CC[C@]34C=O)[C@@]1(O)CC[C@@H]2C1=CC(=O)OC1 [STROPHANTHIDIN] | 16 | 15 | 40.1 | 45.5 |  |  | -4.451 |  | 4.95 | SD from mean (pilot screen) [4, 15]: -4.451 |
| CC(C)c1cc(/C=C(\C#N)C(=O)NCCCc2ccccc2)cc(C(C)C)c1O [SU1498] |  |  |  |  |  | -4.885 | -4.885 |  | 5.48 | H2&S1 ave luc 1uM [1, 7]: 22; H2&S1 ave luc 10uM [1, 7]: 15; SD from mean (pilot screen) [4, 15]: -4.885; H2&S1 ave luc 1uM [2, 12]: 22; H2&S1 ave luc 10uM ([2]; average of H2 and S1 cells): 15; H2&S1 ave MTT 1uM ([3]; 1 uM compound): 86.0811; H2&S1 ave MTT 10uM ([3]; 10 uM compound): 61.708 |
| C[n+]1cc2c3c(ccc2c2ccc4cc5c(cc4c21)OCO5)OCO3 [Sanguinarine] | 127 | 160 | 103 | 114 |  | -2.689 | -2.689 | -2.689 | 3.02 |  |
| [H]/N=C(/NCCCCC)N/N=C/c1c[nH]c2ccc(OC)cc12 [TEGASEROD MALEATE] |  |  |  |  | 105 | -3.606 | -3.606 | -3.606 | 4.01 | activity at 1 µM [2, 12]: 105%; activity at 10 µM ([2]; average of H2 and S1 cells): 8%; viability at 1 µM [3, 13]: 106%; viability at 10 µM [3, 14]: 14.2% |
